This note sets out measurements from patent publication US20210267207A1, “NOVEL AGROCHEMICAL COMBINATIONS” (priority 2018, published 2021).

Read-outs that look alike come from different tables or passages of the source.

One data set concerns white ears in paddy. Put plainly: Field trial on white ears in paddy, number of white ears per plot. It counts as in vivo.
The test system of another data set is stem borer. The experiment in a line: Field trial of the combination on stem borer in paddy, % mortality. The data set is classed as in vivo. The procedure:
Trials were conducted to test the efficacy of the combination of Chlorantraniliprole+Dinotefuran+Pymetrozine on stem borer in paddy: […]

The format of data set [1] is in vivo. The conditions noted are these: paddy.

In the case of `CNC(=N[N+](=O)[O-])NCC1CCOC1` (racemic) [Dinotefuran, (EZ)—(RS)-1-methyl-2-nitro-3-(tetrahydro-3-furylmethyl)guanidine], in the data set on white ears in paddy (dose 40 gm. ai/ha), the “Number of white ears per plot 7 DAA” value turned out to be 11, the “Number of white ears per plot 14 DAA” value was determined as 19 and the “Number of white ears per plot 21 DAA” value is 41. In the data set with stem borer (dose 40 gm. ai/ha), the “% mortality 3 DAA” value was 65%, the “% mortality 7 DAA” value came to 75%, the “% mortality 10 DAA” value is listed as 75% and the “% mortality 14 DAA” value stood at 70%. Further, in data set [1] (dose 40 gm. ai/ha), the Yield is recorded as 3500.

Regarding `CC1=NNC(=O)N(/N=C/c2cccnc2)C1` [Pymetrozine], in the data set with white ears in paddy (dose 150 gm. ai/ha), the “Number of white ears per plot 7 DAA” value is listed as 12, the “Number of white ears per plot 14 DAA” value is listed as 22 and the “Number of white ears per plot 21 DAA” value was 43. Further, in the data set with stem borer (dose 150 gm. ai/ha), the “% mortality 3 DAA” value was 75%, the “% mortality 7 DAA” value turned out to be 88%, the “% mortality 10 DAA” value is given as 89% and the “% mortality 14 DAA” value worked out at 79%. In addition, in data set [1] (dose 150 gm. ai/ha), the Yield was found to be 3600.

On to `CNC(=O)c1cc(Cl)cc(C)c1NC(=O)c1cc(Br)nn1-c1ncccc1Cl` [Chlorantraniliprole, 3-bromo-4′-chloro-1-(3-chloro-2-pyridyl)-2′-methyl-6′-(methylcarbamoyl)pyrazole-5-carboxanilide], for which, in the data set with white ears in paddy (dose 30 gm. ai/ha), the “Number of white ears per plot 7 DAA” value amounted to 5, the “Number of white ears per plot 14 DAA” value came to 7 and the “Number of white ears per plot 21 DAA” value came out at 14. Moreover, in the data set with stem borer (dose 30 gm. ai/ha), the “% mortality 3 DAA” value came to 3%, the “% mortality 7 DAA” value is reported as 7%, the “% mortality 10 DAA” value came out at 7.9% and the “% mortality 14 DAA” value is listed as 6.9%. In data set [1] (dose 30 gm. ai/ha), this molecule had a Yield of 4322.
